Test results from patent US11542240B2, “STK19 inhibitors for treatment of cancer” (TRUSTEES OF BOSTON UNIVERSITY, priority 2018, dated 2023).
Like-named read-outs stand apart in the source and are kept apart here.

Key:
Experiment in all cases: biochemical
Assay type in all cases: binding
[1] = molecular target: panel of 468 diverse kinases (Homo sapiens, UniProt P51813); conditions: BMX; 1000 nM; read-out: Percent Control
[2] = molecular target: panel of 468 diverse kinases (Homo sapiens, UniProt Q99759); conditions: MAP3K3; 1000 nM; read-out: Percent Control
[3] = molecular target: panel of 468 diverse kinases (Homo sapiens, UniProt Q9UEW8); conditions: STK39; 1000 nM; read-out: Percent Control
[4] = molecular target: panel of 468 diverse kinases (Homo sapiens, UniProt O60285); conditions: ARK5; 1000 nM; read-out: Percent Control
[5] = molecular target: panel of 468 diverse kinases (Homo sapiens, UniProt Q6ZWH5); conditions: NEK10; 1000 nM; read-out: Percent Control
[6] = molecular target: panel of 468 diverse kinases (Homo sapiens, UniProt P36894); conditions: BMPRIV; 1000 nM; read-out: Percent Control
[7] = molecular target: panel of 468 diverse kinases (Homo sapiens, UniProt Q16566); conditions: CAMK4; 1000 nM; read-out: Percent Control
[8] = molecular target: panel of 468 diverse kinases (Homo sapiens, UniProt Q16620); conditions: TRKB; 1000 nM; read-out: Percent Control
[9] = molecular target: panel of 468 diverse kinases (Homo sapiens, UniProt Q9Y4K4); conditions: MAP4K5; 1000 nM; read-out: Percent Control
[10] = molecular target: panel of 468 diverse kinases (Homo sapiens, UniProt Q96D53); conditions: ADCK4; 1000 nM; read-out: Percent Control
[11] = molecular target: panel of 468 diverse kinases (Homo sapiens, UniProt Q8WXR4); conditions: MYO3B; 1000 nM; read-out: Percent Control
[12] = molecular target: panel of 468 diverse kinases (Homo sapiens, UniProt P04049); conditions: RAF1; 1000 nM; read-out: Percent Control
[13] = molecular target: panel of 468 diverse kinases (Homo sapiens, UniProt O95819); conditions: MAP4K4; 1000 nM; read-out: Percent Control
[14] = molecular target: panel of 468 diverse kinases (Homo sapiens, UniProt P09619); conditions: PDGFRB; 1000 nM; read-out: Percent Control
[15] = molecular target: panel of 468 diverse kinases (Homo sapiens, UniProt P36888, K663Q); conditions: FLT3(K663Q); 1000 nM; read-out: Percent Control
[16] = molecular target: panel of 468 diverse kinases (Homo sapiens, UniProt P46734); conditions: MEK3; 1000 nM; read-out: Percent Control
[17] = molecular target: panel of 468 diverse kinases (Homo sapiens, UniProt Q13233); conditions: MAP3K1; 1000 nM; read-out: Percent Control
[18] = molecular target: panel of 468 diverse kinases (Homo sapiens, UniProt P31152); conditions: ERK4; 1000 nM; read-out: Percent Control
[19] = molecular target: panel of 468 diverse kinases (Homo sapiens, UniProt Q9UM73); conditions: ALK; 1000 nM; read-out: Percent Control
[20] = molecular target: panel of 468 diverse kinases (Homo sapiens, UniProt Q96RR4); conditions: CAMKK2; 1000 nM; read-out: Percent Control
[21] = molecular target: panel of 468 diverse kinases (Homo sapiens, UniProt P49760); conditions: CLK2; 1000 nM; read-out: Percent Control
[22] = molecular target: panel of 468 diverse kinases (Homo sapiens, UniProt Q13873); conditions: BMPR2; 1000 nM; read-out: Percent Control
[23] = molecular target: panel of 468 diverse kinases (Homo sapiens, UniProt O14730); conditions: RIOK3; 1000 nM; read-out: Percent Control
[24] = molecular target: panel of 468 diverse kinases (Homo sapiens, UniProt Q13557); conditions: CAMK2D; 1000 nM; read-out: Percent Control
[25] = molecular target: panel of 468 diverse kinases (Homo sapiens, UniProt Q06418); conditions: TYRO3; 1000 nM; read-out: Percent Control
[26] = molecular target: panel of 468 diverse kinases (Homo sapiens, UniProt O76039); conditions: CDKL5; 1000 nM; read-out: Percent Control
[27] = molecular target: panel of 468 diverse kinases (Homo sapiens, UniProt Q9P0L2); conditions: MARK1; 1000 nM; read-out: Percent Control
[28] = molecular target: panel of 468 diverse kinases (Homo sapiens, UniProt P07949, V804L); conditions: RET(V804L); 1000 nM; read-out: Percent Control
[29] = molecular target: panel of 468 diverse kinases (Homo sapiens, UniProt P51451); conditions: BLK; 1000 nM; read-out: Percent Control
[30] = molecular target: panel of 468 diverse kinases (Homo sapiens, UniProt P00519, F317L); conditions: 1000 nM, read-out: Percent Control
[31] = molecular target: panel of 468 diverse kinases (Homo sapiens, UniProt Q15835); conditions: GRK1; 1000 nM; read-out: Percent Control

panel of 468 diverse kinases (Homo sapiens, UniProt Q13233), sequence (Q13233 2-1512 limits assumed): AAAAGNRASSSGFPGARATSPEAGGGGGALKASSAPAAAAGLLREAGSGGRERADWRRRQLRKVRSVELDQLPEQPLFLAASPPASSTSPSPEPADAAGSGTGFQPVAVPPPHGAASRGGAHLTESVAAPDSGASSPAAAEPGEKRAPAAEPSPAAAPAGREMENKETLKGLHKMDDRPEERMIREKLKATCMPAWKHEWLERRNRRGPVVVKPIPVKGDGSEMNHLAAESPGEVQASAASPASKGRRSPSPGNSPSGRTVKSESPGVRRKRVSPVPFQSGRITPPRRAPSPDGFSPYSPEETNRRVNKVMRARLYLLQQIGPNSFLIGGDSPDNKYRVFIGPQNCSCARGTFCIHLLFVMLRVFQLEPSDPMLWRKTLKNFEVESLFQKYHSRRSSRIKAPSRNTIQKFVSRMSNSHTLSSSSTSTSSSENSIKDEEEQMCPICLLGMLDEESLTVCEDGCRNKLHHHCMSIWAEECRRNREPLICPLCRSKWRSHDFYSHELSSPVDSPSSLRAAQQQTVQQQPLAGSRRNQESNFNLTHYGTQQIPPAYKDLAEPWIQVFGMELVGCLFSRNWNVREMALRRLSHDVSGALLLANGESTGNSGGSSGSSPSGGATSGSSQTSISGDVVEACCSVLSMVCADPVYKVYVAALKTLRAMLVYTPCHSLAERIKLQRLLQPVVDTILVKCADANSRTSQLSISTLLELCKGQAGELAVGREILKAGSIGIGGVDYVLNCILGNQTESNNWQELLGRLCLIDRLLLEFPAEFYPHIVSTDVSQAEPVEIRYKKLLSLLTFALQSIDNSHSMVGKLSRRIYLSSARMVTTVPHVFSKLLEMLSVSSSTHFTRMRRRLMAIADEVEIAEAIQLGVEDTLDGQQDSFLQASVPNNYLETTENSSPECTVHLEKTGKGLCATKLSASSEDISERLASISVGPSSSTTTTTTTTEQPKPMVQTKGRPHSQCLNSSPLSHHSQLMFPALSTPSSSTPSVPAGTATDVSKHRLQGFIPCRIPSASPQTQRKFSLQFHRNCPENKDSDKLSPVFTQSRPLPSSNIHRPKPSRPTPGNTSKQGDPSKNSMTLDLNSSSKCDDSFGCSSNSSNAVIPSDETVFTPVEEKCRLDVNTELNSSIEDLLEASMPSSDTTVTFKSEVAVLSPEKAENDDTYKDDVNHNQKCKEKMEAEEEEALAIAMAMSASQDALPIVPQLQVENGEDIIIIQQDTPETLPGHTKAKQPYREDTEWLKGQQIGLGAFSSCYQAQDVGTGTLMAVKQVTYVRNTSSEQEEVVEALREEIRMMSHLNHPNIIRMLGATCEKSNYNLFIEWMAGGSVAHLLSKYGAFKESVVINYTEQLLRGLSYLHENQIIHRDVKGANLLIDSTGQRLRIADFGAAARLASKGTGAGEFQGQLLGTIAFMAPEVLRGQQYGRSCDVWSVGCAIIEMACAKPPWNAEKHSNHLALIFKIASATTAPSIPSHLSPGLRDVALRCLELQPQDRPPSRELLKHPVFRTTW
panel of 468 diverse kinases (Homo sapiens, UniProt P51451), sequence (P51451 2-505 limits assumed): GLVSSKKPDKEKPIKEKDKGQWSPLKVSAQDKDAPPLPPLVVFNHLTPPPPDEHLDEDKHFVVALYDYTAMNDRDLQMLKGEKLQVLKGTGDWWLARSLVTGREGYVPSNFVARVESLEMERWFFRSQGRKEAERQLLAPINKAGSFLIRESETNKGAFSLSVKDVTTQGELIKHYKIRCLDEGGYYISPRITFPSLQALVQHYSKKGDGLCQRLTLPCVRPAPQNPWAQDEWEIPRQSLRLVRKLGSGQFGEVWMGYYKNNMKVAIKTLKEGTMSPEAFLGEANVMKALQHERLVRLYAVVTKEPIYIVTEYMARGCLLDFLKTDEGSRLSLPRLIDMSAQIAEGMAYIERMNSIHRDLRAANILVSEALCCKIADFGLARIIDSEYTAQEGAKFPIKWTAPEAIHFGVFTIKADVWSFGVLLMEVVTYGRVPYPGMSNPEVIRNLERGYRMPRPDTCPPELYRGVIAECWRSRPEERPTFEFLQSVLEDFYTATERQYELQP
panel of 468 diverse kinases (Homo sapiens, UniProt Q9UM73), sequence (Q9UM73 19-1620 limits assumed): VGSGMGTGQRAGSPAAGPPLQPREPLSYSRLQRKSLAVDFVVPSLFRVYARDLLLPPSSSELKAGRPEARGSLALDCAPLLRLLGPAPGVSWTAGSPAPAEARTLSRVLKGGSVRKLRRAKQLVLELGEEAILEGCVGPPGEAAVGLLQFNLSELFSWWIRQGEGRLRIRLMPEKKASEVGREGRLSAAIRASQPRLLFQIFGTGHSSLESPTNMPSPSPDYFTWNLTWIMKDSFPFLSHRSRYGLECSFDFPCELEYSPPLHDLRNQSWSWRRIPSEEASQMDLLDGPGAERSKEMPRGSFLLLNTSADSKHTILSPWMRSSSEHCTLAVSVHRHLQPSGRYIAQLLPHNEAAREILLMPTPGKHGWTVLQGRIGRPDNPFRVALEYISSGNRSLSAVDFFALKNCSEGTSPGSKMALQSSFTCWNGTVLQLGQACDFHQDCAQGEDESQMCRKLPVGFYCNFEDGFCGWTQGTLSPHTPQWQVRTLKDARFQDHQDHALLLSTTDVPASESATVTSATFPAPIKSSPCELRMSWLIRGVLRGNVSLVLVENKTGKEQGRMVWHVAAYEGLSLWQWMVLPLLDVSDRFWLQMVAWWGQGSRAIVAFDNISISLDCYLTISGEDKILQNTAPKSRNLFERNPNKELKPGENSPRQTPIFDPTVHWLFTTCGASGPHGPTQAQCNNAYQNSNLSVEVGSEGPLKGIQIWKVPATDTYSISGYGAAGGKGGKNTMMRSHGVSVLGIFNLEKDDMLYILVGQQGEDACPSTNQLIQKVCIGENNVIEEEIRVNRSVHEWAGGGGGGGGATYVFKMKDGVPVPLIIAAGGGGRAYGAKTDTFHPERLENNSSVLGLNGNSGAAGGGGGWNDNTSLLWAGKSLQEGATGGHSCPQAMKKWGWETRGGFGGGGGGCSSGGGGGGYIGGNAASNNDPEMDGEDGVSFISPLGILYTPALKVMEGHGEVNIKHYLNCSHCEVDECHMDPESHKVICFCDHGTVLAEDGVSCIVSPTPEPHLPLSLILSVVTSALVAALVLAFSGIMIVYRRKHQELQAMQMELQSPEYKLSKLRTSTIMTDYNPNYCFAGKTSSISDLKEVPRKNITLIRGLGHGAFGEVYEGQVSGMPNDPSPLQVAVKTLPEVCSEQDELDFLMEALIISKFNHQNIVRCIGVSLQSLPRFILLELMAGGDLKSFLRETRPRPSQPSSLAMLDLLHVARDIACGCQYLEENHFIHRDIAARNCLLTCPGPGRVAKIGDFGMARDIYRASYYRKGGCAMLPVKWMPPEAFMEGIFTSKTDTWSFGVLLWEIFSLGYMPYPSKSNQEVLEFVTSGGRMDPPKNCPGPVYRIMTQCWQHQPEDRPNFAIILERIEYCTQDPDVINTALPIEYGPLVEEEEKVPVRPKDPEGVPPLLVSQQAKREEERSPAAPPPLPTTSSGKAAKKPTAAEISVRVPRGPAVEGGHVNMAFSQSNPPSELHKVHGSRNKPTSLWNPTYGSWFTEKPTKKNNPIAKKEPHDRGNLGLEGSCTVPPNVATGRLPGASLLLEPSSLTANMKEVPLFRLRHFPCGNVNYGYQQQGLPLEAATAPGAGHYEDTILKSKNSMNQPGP
panel of 468 diverse kinases (Homo sapiens, UniProt Q06418), sequence (Q06418 41-890 limits assumed): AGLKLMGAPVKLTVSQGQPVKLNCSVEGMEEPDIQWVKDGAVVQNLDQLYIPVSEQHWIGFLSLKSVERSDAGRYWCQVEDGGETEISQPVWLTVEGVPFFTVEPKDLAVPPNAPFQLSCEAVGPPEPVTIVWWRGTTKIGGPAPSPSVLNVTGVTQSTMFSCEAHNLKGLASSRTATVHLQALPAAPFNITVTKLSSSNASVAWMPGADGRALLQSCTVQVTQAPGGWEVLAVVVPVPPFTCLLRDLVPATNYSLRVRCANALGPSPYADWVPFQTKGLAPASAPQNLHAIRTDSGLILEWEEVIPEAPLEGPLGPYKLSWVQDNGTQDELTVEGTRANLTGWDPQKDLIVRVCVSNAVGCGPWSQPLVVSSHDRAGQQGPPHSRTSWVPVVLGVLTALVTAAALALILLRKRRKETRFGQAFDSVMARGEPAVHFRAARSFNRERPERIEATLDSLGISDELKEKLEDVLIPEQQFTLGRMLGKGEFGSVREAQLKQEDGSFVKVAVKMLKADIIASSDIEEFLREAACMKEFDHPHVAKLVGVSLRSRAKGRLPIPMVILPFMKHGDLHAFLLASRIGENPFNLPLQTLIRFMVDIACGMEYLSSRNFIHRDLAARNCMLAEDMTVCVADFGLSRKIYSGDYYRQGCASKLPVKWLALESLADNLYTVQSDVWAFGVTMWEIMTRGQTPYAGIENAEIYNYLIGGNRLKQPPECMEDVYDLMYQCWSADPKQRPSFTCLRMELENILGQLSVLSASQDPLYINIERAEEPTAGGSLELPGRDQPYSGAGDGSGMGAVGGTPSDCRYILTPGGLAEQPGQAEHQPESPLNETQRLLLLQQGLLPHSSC
panel of 468 diverse kinases (Homo sapiens, UniProt P36894), sequence (P36894 24-532 limits assumed): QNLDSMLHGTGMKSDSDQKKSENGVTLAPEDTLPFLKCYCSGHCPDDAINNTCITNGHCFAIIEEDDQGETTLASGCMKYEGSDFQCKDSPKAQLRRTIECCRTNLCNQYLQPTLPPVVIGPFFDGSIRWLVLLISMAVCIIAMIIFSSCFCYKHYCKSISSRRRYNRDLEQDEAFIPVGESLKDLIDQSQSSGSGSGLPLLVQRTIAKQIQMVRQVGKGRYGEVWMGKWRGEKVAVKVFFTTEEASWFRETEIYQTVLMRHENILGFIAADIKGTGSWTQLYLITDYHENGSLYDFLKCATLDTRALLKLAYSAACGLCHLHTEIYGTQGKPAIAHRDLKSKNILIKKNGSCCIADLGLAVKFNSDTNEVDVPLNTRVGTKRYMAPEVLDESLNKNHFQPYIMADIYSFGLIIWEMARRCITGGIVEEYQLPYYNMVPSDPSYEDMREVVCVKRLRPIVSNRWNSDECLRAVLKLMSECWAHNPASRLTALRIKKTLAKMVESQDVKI

With `COc1cc2nc(NC3CC3)nc(NC3CCN(C(C)C)CC3)c2cc1OC` [Formula IV] the remaining activity at 1 µM [1] was 100%, the remaining activity at 1 µM [2] was 55% and the remaining activity at 1 µM [3] was 58%. It also gave a remaining activity at 1 µM [4] of 98%, a remaining activity at 1 µM [5] of 50% and a remaining activity at 1 µM [6] of 100%. It also gave a remaining activity at 1 µM [7] of 98%, a remaining activity at 1 µM [8] of 48% and a remaining activity at 1 µM [9] of 100%. The remaining activity at 1 µM [10] was 100%, the remaining activity at 1 µM [11] was 91% and the remaining activity at 1 µM [12] was 83%. The remaining activity at 1 µM [13] was 100%, the remaining activity at 1 µM [14] was 93% and the remaining activity at 1 µM [15] was 98%. For the same compound, the remaining activity at 1 µM [16] was 66%, the remaining activity at 1 µM [17] was 54% and the remaining activity at 1 µM [18] was 91%. It also gave a remaining activity at 1 µM [19] of 61%, a remaining activity at 1 µM [20] of 100% and a remaining activity at 1 µM [21] of 90%. For the same compound, the remaining activity at 1 µM [22] was 40%, the remaining activity at 1 µM [23] was 100% and the remaining activity at 1 µM [24] was 89%. For the same compound, the remaining activity at 1 µM [25] was 100%, the remaining activity at 1 µM [26] was 52% and the remaining activity at 1 µM [27] was 92%. The remaining activity at 1 µM [28] was 75%, the remaining activity at 1 µM [29] was 100% and the remaining activity at 1 µM ([30]; ABL1 (F317L)-nonpho sphorylated) was 82%. The remaining activity at 1 µM ([30]; ABL1(F317L)-phosphorylated) was 40% and the remaining activity at 1 µM [31] was 67%.
